Reference: PMC3141093 (2011)

Experiments:
[1] = target: anti-METH monoclonal antibody (mAb) generated from mice immunized with (+)-METH HSMO9 BSA MCV; experiment: mAb affinity; type: binding, Mus musculus
[2] = target: anti-METH monoclonal antibody (mAb) generated from mice immunized with (+)-METH HSMO9 BSA MCV; experiment: mAb affinity; type: binding, Mus musculus; remark: listed apart in the source

Structure (SMILES)	Ki [1] [nM]	Kd [2] [nM]
CN[C@@H](C)Cc1ccc2c(c1)OCO2 [(+)-MDMA]	1.1	–
CN[C@@H](C)Cc1ccccc1 [(+)-METH]	–	6.8
